As a reminder, the inhibition is the share of the control response that was lost under treatment.

This is an account of results in patent US12378250B2, “Tricyclic compound as IRAK4 inhibitor” (KOREA RESEARCH INSTITUTE OF CHEMICAL TECHNOLOGY, priority 2018, dated 2025).

The test system of experiment [1] is ISG promoter, THP1-Lucia™ ISG cell line. In words: ISG promoter inhibition, THP1-Lucia ISG cell line. The following applies: 1 μg/ml Poly(dA:dT)/LyoVec, 24 hours, read-out: ISG, % inhibition degree. The class given is cell-based. The gist of the method: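 THP1-Lucia cells (NF-κB line 1×10^4/well, ISG line 2×10^4/well) preincubated with compound for 30 minutes. Stimulation then used 100 ng/ml LPS (NF-κB) or 1 μg/ml Poly(dA:dT)/LyoVec (ISG) for 24 hours. Secreted luciferase in supernatant measured by Quanti-luc luminescence.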

The target in another experiment is T1, IRAK4 enzyme (Homo sapiens, UniProt Q9NWZ3).
T1 sequence (Q9NWZ3 1-460): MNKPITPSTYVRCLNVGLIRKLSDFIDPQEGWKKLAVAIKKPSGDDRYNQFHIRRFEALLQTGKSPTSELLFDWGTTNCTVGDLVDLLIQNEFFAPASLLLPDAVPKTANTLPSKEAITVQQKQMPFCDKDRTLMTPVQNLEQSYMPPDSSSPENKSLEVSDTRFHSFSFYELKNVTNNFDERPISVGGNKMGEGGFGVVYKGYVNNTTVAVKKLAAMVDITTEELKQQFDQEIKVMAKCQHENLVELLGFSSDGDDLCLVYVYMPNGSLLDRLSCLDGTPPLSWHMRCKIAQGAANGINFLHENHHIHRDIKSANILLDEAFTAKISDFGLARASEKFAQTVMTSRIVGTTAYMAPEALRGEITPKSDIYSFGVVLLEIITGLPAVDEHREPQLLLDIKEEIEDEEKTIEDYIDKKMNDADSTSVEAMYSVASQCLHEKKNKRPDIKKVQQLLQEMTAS
The experiment in a line: IRAK4 enzyme inhibition degree (bead-based kinase assay, peptide substrate BMKC-2, 100 μM ATP). It is filed as biochemical. The note with it: compound 1 μM. The method in brief:
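IRAK4 (0.4 ng/μl stock) preincubated 10 min with compound, then 6 μM BMKC-2 peptide with 100 μM ATP (mix concentrations) for 60 min at room temperature; EDTA stop. Phospho-Thr antibody with AlphaScreen donor/acceptor beads detected product; % inhibition versus controls, IC50 by non-linear regression.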

The subject of experiment [2] is IFN-α secretion, peripheral blood mononuclear cells (PBMCs). In words: Suppression of IFN-α secretion in ODN2216-treated PBMCs (ELISA). The class given is cell-based. The following applies: PBMC, 500 nM ODN2216, 72 hours, read-out: IFN-α, % inhibition degree. The method in brief: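 PBMCs (1×10^5 cells/well for TNF-α, 2×10^5 for IFN-α) preincubated 30 min with compound, then stimulated with 100 ng/ml LPS for 24 h (TNF-α) or 500 nM ODN2216 for 72 h (IFN-α). Cytokines in supernatants quantified by sandwich ELISA with TMB, absorbance 450/570 nm.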
For orientation: In an ELISA, binding on a coated surface is turned into a signal by an enzyme label.

`Fc1cncc(-c2ccc3[nH]c4ncnc(N[C@H]5CC[C@H](N6CCOCC6)CC5)c4c3c2)c1` [Compound 6aaf, 6-(5-fluoropyridin-3-yl)-N-(trans-4-morpholinocyclohexyl)-9H-pyrimido[4,5-b]indole-4-amine]: the results for the inhibition at 0.1 µM in experiment [1] (0.1 μM) and in experiment [2] (0.1 μM) were 24% and 48%, respectively. Moreover, the inhibition at 1 µM in experiment [1] (1 μM) was 83%; against IRAK4 enzyme it was 100%; in experiment [2] (1 μM), 96%.
